≈ marks a conversion by molar mass, not a printed value. Where a name gives a salt, the structure may show the parent alone.
Key:
[1] = system: Human colorectal cancer cells (HCT116); assay: IC50 of 5-fluorouracil against HCT116 cells with or without sCA particles, cell count (Example 1); type: cell-based; conditions: sCA(1) particles added 24 hours before, where used
Protocol: At 24, 48, and 72 hours after the addition of 5-fluorouracil, the number of cells was counted, and IC50 (concentration of 5-fluorouracil that kills 50% of the cancer cells) values were determined.

[2] = system: Human colorectal cancer cells (HCT116); assay: IC50 of anticancer agents against HCT116 cells with or without sCA particles, cell count at 48 hours (Example 2); type: cell-based
Protocol: At 48 hours after the addition of each of the anticancer agents, the number of cells was counted, and the IC50 (concentration of 5-fluorouracil that kills 50% of the cancer cells) value was determined.

[3] = system: human colorectal cancer cell line HT29 subcutaneous tumor; assay: Doxorubicin accumulation in HT29 subcutaneous tumors, IVIS Spectrum fluorescent imaging (Example 7); type: in vivo, BALB/cA nude mice; conditions: HT29 tumor mice; doxorubicin hydrochloride 1.5 mg/mouse via tail vein; tumors removed after 2 hours; sCA(2) particles 3 hours before, where used; FIG. 9
Protocol: At the time when the tumors reached about 10 mm in diameter, the mice were randomly divided into the two groups shown in Table 5, and each group was administered the drug. After 2 hours from the drug administration, tumors were removed from the mice, and doxorubicin hydrochloride accumulated in the tumors was detected by fluorescent imaging using the IVIS Spectrum. For doxorubicin (DOX), detection of fluorescence wavelength has been confirmed by the IVIS Spectrum (FIG. 8).

[4] = Homo sapiens, HCT-116, 48 hours after addition of anticancer agent, With sCA particles, read-out: IC50 (mean ± SD), With sCA particles
[5] = Homo sapiens, HCT-116, 48 hours after addition of anticancer agent, Without sCA particles, read-out: IC50 (mean ± SD), Without sCA particles
[6] = 48 hours after addition of anticancer agent, With sCA particles, read-out: IC50 (mean ± SD), With sCA particles
[7] = 48 hours after addition of anticancer agent, Without sCA particles, read-out: IC50 (mean ± SD), Without sCA particles

## O=c1[nH]cc(F)c(=O)[nH]1 [5-fluorouracil]
[1]; HCT-116, 24 hours after addition of 5-fluorouracil, read-out: IC50 (mean ± SD), After 24 hr
  IC50: 215 ± 141 µg/mL (≈ 1650 µM)
[1]; HCT-116, 48 hours after addition of 5-fluorouracil, read-out: IC50 (mean ± SD), After 48 hr
  IC50: 4.07 ± 0.473 µg/mL (≈ 31.3 µM)
[1]; HCT-116, 72 hours after addition of 5-fluorouracil, read-out: IC50 (mean ± SD), After 72 hr
  IC50: 2.64 ± 0.696 µg/mL (≈ 20.3 µM)
[2]; [4]
  IC50: 74.6 ± 10 µM
[2]; [5]
  IC50: 11.7 ± 2 µM

## N.N.[Cl][Pt][Cl] [Cisplatin, cisplatin]
[2]; [6]
  IC50: 39.2 ± 2.7 µM
[2]; [7]
  IC50: 31.3 ± 0.9 µM

## CC(=O)O[C@@]12CO[C@@H]1C[C@H](O)[C@@]1(C)C(=O)[C@H](O)C3=C(C)[C@@H](OC(=O)[C@H](O)[C@@H](NC(=O)OC(C)(C)C)c4ccccc4)C[C@@](O)([C@@H](OC(=O)c4ccccc4)[C@H]21)C3(C)C [Docetaxel, docetaxel]
[2]; [4]
  IC50: 0.00917 ± 0.00042 µM
[2]; [5]
  IC50: 0.000353 ± 7e-05 µM

## O=C1[O][Pt]2([NH][C@@H]3CCCC[C@H]3[NH]2)[O]C1=O [Oxaliplatin, oxaliplatin]
[2]; [6]
  IC50: 31.3 ± 2.2 µM
[2]; [7]
  IC50: 3.7 ± 1.1 µM

## COc1cccc2c1C(=O)c1c(O)c3c(c(O)c1C2=O)C[C@@](O)(C(=O)CO)C[C@@H]3O[C@H]1C[C@H](N)[C@H](O)[C@H](C)O1 [doxorubicin hydrochloride]
[3]
  doxorubicin accumulated in the tumor (fluorescent imaging): only a small amount of doxorubicin was detected in the tumor
